According to US11345666B2, “Phenyl and pyridinyl substituted imidazoles as modulators of RORγT” (Janssen Pharmaceutica NV, priority 2018, dated 2022):
Read-outs that look alike come from different tables or passages of the source. Marks after values point to notes of the source that are not given here.

Experiments:
full-length human RORγt = full-length human RORγt (Homo sapiens (Human), UniProt P51449); assay: RORγt (full-length human) reporter assay, conditions A or B; type: cell-based; conditions: for IC50: HEK293T cells, read-out: RORγt (FL) Reporter Assay A or B, IC50; for inhibition at 6 µM: read-out: RORγt (FL) Reporter Assay A or B, % inhibition @ 6 μM, 6 μM compound concentration
Method in brief: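 HEK293T cells transiently co-transfected (PEI) with GAL4-DBD–RORγt, GAL4-firefly luciferase and CMV-Renilla reporters; condition A 35,000 cells/well, 170.5 ng DNA/well; condition B 8750 cells/well, 42.6 ng DNA/well.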

[1] = target: human RORγt ligand binding domain (RORγt LBD) (Homo sapiens (Human), UniProt P51449); assay: RORγt ThermoFluor assay
Method in brief: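 Thermal shift of His-tagged human RORγt LBD (0.065 mg/mL) with 60 μM 1,8-ANS in 100 mM Hepes pH 7.0, 10 mM NaCl, 2.5 mM GSH, 0.002% Tween-20, heated at 1° C./min. Compounds in 1:2 series from a 10 mM DMSO stock; KD estimated from ΔTm using protein unfolding thermodynamics.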

[2] = 3 μM compound concentration (*), read-out: RORγt (FL) Reporter Assay A or B, % inhibition
[3] = 2 μM compound concentration (**), read-out: RORγt (FL) Reporter Assay A or B, % inhibition

human RORγt ligand binding domain (RORγt LBD), sequence (P51449 other isoform, or with tags, fused parts or gaps): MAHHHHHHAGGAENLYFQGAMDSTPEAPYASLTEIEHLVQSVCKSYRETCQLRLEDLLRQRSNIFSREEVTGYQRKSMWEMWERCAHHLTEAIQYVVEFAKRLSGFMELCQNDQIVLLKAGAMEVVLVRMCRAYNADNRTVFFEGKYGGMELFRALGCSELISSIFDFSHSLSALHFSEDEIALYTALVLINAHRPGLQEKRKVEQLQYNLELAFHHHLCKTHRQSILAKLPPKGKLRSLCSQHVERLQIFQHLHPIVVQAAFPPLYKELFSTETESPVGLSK
full-length human RORγt, sequence (P51449 other isoform, or with tags, fused parts or gaps): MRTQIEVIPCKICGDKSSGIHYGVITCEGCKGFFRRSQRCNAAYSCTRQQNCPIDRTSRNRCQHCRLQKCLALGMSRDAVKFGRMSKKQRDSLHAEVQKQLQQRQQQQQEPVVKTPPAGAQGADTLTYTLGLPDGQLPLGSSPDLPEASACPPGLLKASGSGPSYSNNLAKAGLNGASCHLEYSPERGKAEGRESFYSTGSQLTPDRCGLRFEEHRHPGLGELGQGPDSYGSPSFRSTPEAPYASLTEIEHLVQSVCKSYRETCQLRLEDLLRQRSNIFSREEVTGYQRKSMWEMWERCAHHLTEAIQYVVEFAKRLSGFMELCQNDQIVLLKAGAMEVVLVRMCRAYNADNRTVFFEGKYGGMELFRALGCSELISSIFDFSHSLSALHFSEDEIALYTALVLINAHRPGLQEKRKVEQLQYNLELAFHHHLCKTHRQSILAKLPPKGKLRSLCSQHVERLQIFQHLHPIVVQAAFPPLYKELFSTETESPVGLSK

Structure (SMILES) | IC50 (full-length human RORγt) | inhibition at 6 µM (full-length human RORγt) | Kd [1] | other results
CCc1nc(C(=O)NC[C@H]2CC[C@H](S(C)(=O)=O)CC2)cn1-c1cnc(CCC(F)(F)F)cc1OC [Example 116, 2-Ethyl-1-(4-methoxy-6-(3,3,3-trifluoropropyl)pyridin-3-yl)-N-(((1r,4r)-4-(methylsulfonyl)cyclohexyl)methyl)-1H-imidazole-4-carboxamide] | 3000 nM | 30% | 5000 nM | –
CCc1nc(C(=O)NC[C@H]2CC[C@H](S(C)(=O)=O)CC2)c(Cl)n1-c1ccc(CC(C)(C)C(F)(F)F)c(OC)c1 [Example 42, 5-Chloro-2-ethyl-1-(3-methoxy-4-(3,3,3-trifluoro-2,2-dimethylpropyl)phenyl)-N-(((1r,4r)-4-(methylsulfonyl)cyclohexyl)methyl)-1H-imidazole-4-carboxamide] | 6.2 nM | – | 1.1 nM | inhibition at 0.22 µM (full-length human RORγt; 0.22 μM compound concentration (******), read-out: RORγt (FL) Reporter Assay A or B, % inhibition): 66%
Cc1nc(C(=O)NC[C@H]2CC[C@H](S(C)(=O)=O)CC2)c(Cl)n1-c1ncc(CC(C)(C)C(F)(F)F)cc1OC(F)F [Example 133, 5-Chloro-1-(3-(difluoromethoxy)-5-(3,3,3-trifluoro-2,2-dimethylpropyl)pyridin-2-yl)-2-methyl-N-(((1r,4r)-4-(methylsulfonyl)cyclohexyl)methyl)-1H-imidazole-4-carboxamide] | 37 nM | – | 9.5 nM | inhibition at 3 µM (full-length human RORγt; [2]): 72%
COc1cc(N[C@H](C)C(F)(F)F)ccc1-n1c(CC(C)C)nc(C(=O)NC[C@H]2CC[C@H](S(C)(=O)=O)CC2)c1Cl [Example 9, 5-Chloro-2-isobutyl-1-(2-methoxy-4-(((R)-1,1,1-trifluoropropan-2-yl)amino)phenyl)-N-(((1r,4R)-4-(methylsulfonyl)cyclohexyl)methyl)-1H-imidazole-4-carboxamide] | 35 nM | 101% | 2.6 nM | –
CCc1nc(C(=O)NC[C@H]2CC[C@H](S(C)(=O)=O)CC2)c(Cl)n1-c1ncc(C[C@@H](C)C(F)(F)F)cc1OC(F)F (single isomer, unassigned) [Example 78, 5-Chloro-1-(3-(difluoromethoxy)-5-((R*)-3,3,3-trifluoro-2-methylpropyl)pyridin-2-yl)-2-ethyl-N-(((1r,4R)-4-(methylsulfonyl)cyclohexyl)methyl)-1H-imidazole-4-carboxamide] | 96 nM | – | 7 nM | inhibition at 1 µM (full-length human RORγt; 1 μM compound concentration (***), read-out: RORγt (FL) Reporter Assay A or B, % inhibition): 94%
CCc1nc(C(=O)NC[C@]2(C#N)CC[C@@H](S(C)(=O)=O)CC2)c(F)n1-c1ccc(CC(C)(C)C(F)(F)F)cc1OC(F)F [Example 38, N-(((1s*,4s*)-1-Cyano-4-(methylsulfonyl)cyclohexyl)methyl)-1-(2-(difluoromethoxy)-4-(3,3,3-trifluoro-2,2-dimethylpropyl)phenyl)-2-ethyl-5-fluoro-1H-imidazole-4-carboxamide] | 19 nM | – | 4.4 nM | inhibition at 0.67 µM (full-length human RORγt; 0.67 μM compound concentration (****), read-out: RORγt (FL) Reporter Assay A or B, % inhibition): 97%
CCc1nc(C(=O)NC[C@]2(O)CC[C@@H](S(C)(=O)=O)CC2)c(Cl)n1-c1ncc(CC(C)(C)C(F)(F)F)cc1OC(F)F [Example 46, 5-Chloro-1-(3-(difluoromethoxy)-5-(3,3,3-trifluoro-2,2-dimethylpropyl)pyridin-2-yl)-2-ethyl-N-(((1s,4s)-1-hydroxy-4-(methylsulfonyl)cyclohexyl)methyl)-1H-imidazole-4-carboxamide] | 28 nM | 97% | 3.1 nM | –
CCc1nc(C(=O)NC[C@]2(O)CC[C@@H](S(C)(=O)=O)CC2)c(Cl)n1-c1ccc(CC(C)C)cc1OC (single isomer, unassigned) [Example 91, 5-Chloro-2-ethyl-N-(((1s,4S)-1-hydroxy-4-(methylsulfonyl)cyclohexyl)methyl)-1-((S*)-4-isobutyl-2-methoxyphenyl)-1H-imidazole-4-carboxamide] | 360 nM | – | 620 nM | inhibition at 2 µM (full-length human RORγt; read-out: RORγt (FL) Reporter Assay A or B, % inhibition, 2 μM compound concentration (**)): 42%
CCc1nc(C(=O)NC[C@]2(O)CC[C@@H](S(C)(=O)=O)CC2)c(C#N)n1-c1ccc(CC(C)(C)C(F)(F)F)cc1OC(F)F [Example 24, 5-Cyano-1-(2-(difluoromethoxy)-4-(3,3,3-trifluoro-2,2-dimethylpropyl)phenyl)-2-ethyl-N-(((1s,4s)-1-hydroxy-4-(methylsulfonyl)cyclohexyl)methyl)-1H-imidazole-4-carboxamide] | 33 nM | 104% | 5.3 nM | –
CCc1nc(C(=O)NC[C@H]2CC[C@H](S(C)(=O)=O)CC2)c(C#N)n1-c1ccc(CCC(F)(F)F)cc1F [Example 93, 5-Cyano-2-ethyl-1-(2-fluoro-4-(3,3,3-trifluoropropyl)phenyl)-N-(((1r,4r)-4-(methylsulfonyl)cyclohexyl)methyl)-1H-imidazole-4-carboxamide] | 330 nM | – | 93 nM | inhibition at 2 µM (full-length human RORγt; [3]): 65%
CCc1nc(C(=O)NC[C@H]2CC[C@H](S(C)(=O)=O)CC2)c(C#N)n1-c1ncc(CCC(F)(F)F)cc1OC [Example 119, 5-Cyano-2-ethyl-1-(3-methoxy-5-(3,3,3-trifluoropropyl)pyridin-2-yl)-N-(((1r,4r)-4-(methylsulfonyl)cyclohexyl)methyl)-1H-imidazole-4-carboxamide] | 720 nM | 96% | 190 nM | –
CCCc1nc(C(=O)NC[C@H]2CC[C@H](S(C)(=O)=O)CC2)c(Cl)n1-c1ccc(N[C@H](C)C(F)(F)F)cc1OC [Example 11, 5-Chloro-1-(2-methoxy-4-(((R)-1,1,1-trifluoropropan-2-yl)amino)phenyl)-N-(((1r,4R)-4-(methylsulfonyl)cyclohexyl)methyl)-2-propyl-1H-imidazole-4-carboxamide] | 39 nM | 102% | 1 nM | –
CCc1nc(C(=O)NC[C@H]2CC[C@H](S(=O)(=O)NC)CC2)c(Cl)n1-c1ncc(CC(C)(C)C(F)(F)F)cc1OC(F)F [Example 68, 5-Chloro-1-(3-(difluoromethoxy)-5-(3,3,3-trifluoro-2,2-dimethylpropyl)pyridin-2-yl)-2-ethyl-N-(((1r,4r)-4-(N-methylsulfamoyl)cyclohexyl)methyl)-1H-imidazole-4-carboxamide] | 50 nM | – | 3.7 nM | RORγt (FL) Reporter Assay A or B, % inhibition (full-length human RORγt; 3 μM compound concentration (*)): 103* %
CCc1nc(C(=O)NC[C@H]2CC[C@@H](S(C)(=O)=O)CC2)c(Cl)n1-c1ccc(N[C@H](C)C(F)(F)F)cc1OC [Example 4, 5-Chloro-2-ethyl-1-(2-methoxy-4-(((R)-1,1,1-trifluoropropan-2-yl)amino)phenyl)-N-(((1s,4S)-4-(methylsulfonyl)cyclohexyl)methyl)-1H-imidazole-4-carboxamide] | 350 nM | – | 470 nM | inhibition at 2 µM (full-length human RORγt; [3]): 87%
CCc1nc(C(=O)NC[C@]2(O)CC[C@@H](S(C)(=O)=O)CC2)c(C)n1-c1ncc(CC(C(F)(F)F)C(F)(F)F)cc1OC(F)F [Example 76, 1-(3-(Difluoromethoxy)-5-(3,3,3-trifluoro-2-(trifluoromethyl)propyl)pyridin-2-yl)-2-ethyl-N-(((1s,4s)-1-hydroxy-4-(methylsulfonyl)cyclohexyl)methyl)-5-methyl-1H-imidazole-4-carboxamide] | 440 nM | – | 110 nM | inhibition at 3 µM (full-length human RORγt; [2]): 76%
CCc1nc(C(=O)NC[C@H]2CC[C@H](S(C)(=O)=O)CC2)c(C#N)n1-c1ncc(CC(C)(C)C(F)(F)F)cc1OC [Example 122, 5-Cyano-2-ethyl-1-(3-methoxy-5-(3,3,3-trifluoro-2,2-dimethylpropyl)pyridin-2-yl)-N-(((1r,4r)-4-(methylsulfonyl)cyclohexyl)methyl)-1H-imidazole-4-carboxamide] | 48 nM | – | 12 nM | inhibition at 2 µM (full-length human RORγt; [3]): 101%
CCc1nc(C(=O)NC[C@]2(O)CC[C@@H](S(C)(=O)=O)CC2)c(C#N)n1-c1ccc(CCC(F)(F)F)cc1F [Example 95, 5-Cyano-2-ethyl-1-(2-fluoro-4-(3,3,3-trifluoropropyl)phenyl)-N-(((1s,4s)-1-hydroxy-4-(methylsulfonyl)cyclohexyl)methyl)-1H-imidazole-4-carboxamide] | 1200 nM | 72% | 290 nM | –
CCc1nc(C(=O)NC[C@H]2CC[C@H](S(C)(=O)=O)CC2)c(Cl)n1-c1ncc(CC(C)(C)C(F)(F)F)cc1OC [Example 125, 5-Chloro-2-ethyl-1-(3-methoxy-5-(3,3,3-trifluoro-2,2-dimethylpropyl)pyridin-2-yl)-N-(((1r,4r)-4-(methylsulfonyl)cyclohexyl)methyl)-1H-imidazole-4-carboxamide] | 11 nM | – | 1.8 nM | inhibition at 2 µM (full-length human RORγt; [3]): 99%
CCc1nc(C(=O)NC[C@H]2CC[C@H](S(C)(=O)=O)CC2)c(C#N)n1-c1cnc(CCC(F)(F)F)cc1OC [Example 117, 5-Cyano-2-ethyl-1-(4-methoxy-6-(3,3,3-trifluoropropyl)pyridin-3-yl)-N-(((1r,4r)-4-(methylsulfonyl)cyclohexyl)methyl)-1H-imidazole-4-carboxamide] | 1500 nM | 88% | 560 nM | –
